Measured values from patent publication US20070043049A1, “Substituted heterocyclic diarylamine analogues” (Neurogen Corporation, priority 2003, published 2007).

What follows are molecules tested against T1, human capsaicin receptor (Homo sapiens, UniProt Q8NER1) (assay: Calcium mobilization assay, determination of antagonist activity (Example 6)). Settings: 50% decrease in fluorescence response of cells expressing human capsaicin receptor exposed to capsaicin.
T1 construct: pBK-CMV expression construct encoding the full length human capsaicin receptor; expressed in transfected cells
Format: cell-based
Description: A cDNA encoding full length human capsaicin receptor (SEQ ID NO:1, 2 or 3 of U.S. Pat. No. 6,482,611) was subcloned in the plasmid pBK-CMV (Stratagene, La Jolla, Calif.) for recombinant expression in mammalian cells.
Human embryonic kidney (HEK293) cells were transfected with the pBK-CMV expression construct encoding the full length human capsaicin receptor using standard methods. The transfected cells were selected for two weeks in media containing G418 (400 μg/ml) to obtain a pool of stably transfected cells. Independent clones were isolated from this pool by limiting dilution to obtain clonal stable cell lines for use in subsequent experiments.
Cells transfected with expression plasmids (as described in Example 4) and thereby expressing human capsaicin receptor are seeded and grown to 70-90% confluency in FALCON black-walled, clear-bottomed 96-well plates (#3904, BECTON-DICKINSON, Franklin Lakes, N.J.). The culture medium is emptied from the 96 well plates and FLUO-3 AM calcium sensitive dye (Molecular Probes, Eugene, Oreg.) is added to each well (dye solution: 1 mg FLUO-3 AM, 440 μL DMSO and 440 μl 20% pluronic acid in DMSO, diluted 1:250 in Krebs-Ringer HEPES (KRH) buffer (25 mM HEPES, 5 mM KCl, 0.96 mM NaH2PO4, 1 mM MgSO4, 2 mM CaCl2, 5 mM glucose, 1 mM probenecid, pH 7.4), 50 μl diluted solution per well). Plates are covered with aluminum foil and incubated at 37° C. for 1-2 hours in an environment containing 5% CO2. After the incubation, the dye is emptied from the plates, and the cells are washed once with KRH buffer, and resuspended in KRH buffer.
To measure the ability of a test compound to agonize or antagonize a calcium mobilization response in cells expressing capsaicin receptors to capsaicin or other vanilloid agonist, the EC50 of the agonist capsaicin is first determined. An additional 20 μl of KRH buffer and 1 μl DMSO is added to each well of cells, prepared as described above. 100 μl capsaicin in KRH buffer is automatically transferred by the FLIPR instrument to each well. Capsaicin-induced calcium mobilization is monitored using either FLUOROSKAN ASCENT (Labsystems; Franklin, Mass.) or FLIPR (fluorometric imaging plate reader system; Molecular Devices, Sunnyvale, Calif.) instruments. Data obtained between 30 and 60 seconds after agonist application are used to generate an 8-point concentration response curve, with final capsaicin concentrations of 1 nM to 3 μM. KALEIDAGRAPH software (Synergy Software, Reading, Pa.) is used to fit the data to the equation: y=a*(1/(1+(b/x)^c)) to determine the 50% excitatory concentration (EC50) for the response. In this equation, y is the maximum fluorescence signal, x is the concentration of the agonist or antagonist (in this case, capsaicin), a is the Emax, b corresponds to the EC50 value and c is the Hill coefficient. Determination of Agonist Activity
Test compounds are dissolved in DMSO, diluted in 20 μl KRH buffer so that the final concentration of test compounds in the assay well is between 1 μM and 5 μM, and added to cells prepared as described above. The 96 well plates containing prepared cells and test compounds are incubated in the dark, at room temperature for 0.5 to 6 hours. It is important that the incubation not continue beyond 6 hours. Just prior to determining the fluorescence response, 100 μl capsaicin in KRH buffer at twice the EC50 concentration determined as described above is automatically added by the FLIPR instrument to each well of the 96 well plate for a final sample volume of 200 μl and a final capsaicin concentration equal to the EC50. The final concentration of test compounds in the assay wells is between 1 μM and […]. […] The concentration of antagonist required to provide a 50% decrease, relative to the response observed in the presence of capsaicin and without antagonist, is the IC50 for the antagonist, and is preferably below 1 micromolar, 100 nanomolar, 10 nanomolar or 1 nanomolar.

T1 sequence (Q8NER1 whole entry): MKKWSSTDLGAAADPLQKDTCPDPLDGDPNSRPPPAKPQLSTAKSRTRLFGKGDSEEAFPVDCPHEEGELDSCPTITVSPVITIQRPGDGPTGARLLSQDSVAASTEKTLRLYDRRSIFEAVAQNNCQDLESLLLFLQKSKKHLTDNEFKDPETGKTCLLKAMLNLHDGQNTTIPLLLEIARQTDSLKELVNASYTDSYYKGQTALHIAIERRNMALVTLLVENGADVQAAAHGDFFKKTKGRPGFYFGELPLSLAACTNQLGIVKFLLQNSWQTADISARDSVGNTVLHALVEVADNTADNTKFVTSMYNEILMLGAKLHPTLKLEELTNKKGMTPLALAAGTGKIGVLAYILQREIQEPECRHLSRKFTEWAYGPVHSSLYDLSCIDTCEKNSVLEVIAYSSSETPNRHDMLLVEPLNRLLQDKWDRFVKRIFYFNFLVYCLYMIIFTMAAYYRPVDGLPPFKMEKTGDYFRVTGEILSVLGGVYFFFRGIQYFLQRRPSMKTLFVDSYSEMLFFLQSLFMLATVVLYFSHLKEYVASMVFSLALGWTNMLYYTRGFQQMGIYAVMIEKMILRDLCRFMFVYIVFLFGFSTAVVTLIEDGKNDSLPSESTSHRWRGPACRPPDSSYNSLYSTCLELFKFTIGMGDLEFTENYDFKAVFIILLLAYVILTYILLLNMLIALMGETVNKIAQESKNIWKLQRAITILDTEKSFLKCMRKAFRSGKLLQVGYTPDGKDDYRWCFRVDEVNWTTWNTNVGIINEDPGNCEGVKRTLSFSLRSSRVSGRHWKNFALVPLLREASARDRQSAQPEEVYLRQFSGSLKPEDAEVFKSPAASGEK

IC50, ≤ 1000 nM:
C[C@@H]1CN(c2ncccc2Cl)CCN1c1nc(Nc2cccc(F)c2)nc(N2CCOCC2)n1 (stereo in doubt) [Compound 104, {4-[4-(3-Chloro-pyridin-2-yl)-2-methyl-piperazin-1-yl]-6-morpholin-4-yl-[1,3,5]triazin-2-yl}-(3-fluoro-phenyl)-amine]
CC(C)c1ccc(-c2nc(Nc3ccc(C(F)(F)F)cc3)nc(N3CCN(c4ncccc4Cl)C[C@H]3C)n2)cc1 (stereo in doubt) [Compound 114, [4-[4-(3-Chloro-pyridin-2-yl)-2-methyl-piperazin-1-yl]-6-(4-isopropyl-phenyl)-[1,3,5]triazin-2-yl]-(4-trifluoromethyl-phenyl)-amine]
C[C@@H]1CN(c2ncccc2Cl)CCN1c1cc(Nc2ccc(C(C)(C)C)cc2)ncn1 [Compound 1, (4-tert-Butyl-phenyl)-{6-[4-(3-chloro-pyridin-2-yl)-2-methyl-piperazin-1-yl]-pyrimidin-4-yl}-amine (R)]
C[C@@H]1CN(c2ncccc2Cl)CCN1c1nc(Cl)nc(Nc2ccc(C(C)(C)C)cc2)n1 [Compound 2, (4-tert-Butyl-phenyl)-{4-chloro-6-[4-(3-chloro-pyridin-2-yl)-2-methyl-piperazin-1-yl]-[1,3,5]triazin-2-yl}-amine (R)]
C[C@@H]1CN(c2ncccc2C(F)(F)F)CCN1c1nc(Cl)nc(Nc2ccc(C(C)(C)C)cc2)n1 [Compound 3, (4-tert-Butyl-phenyl)-{4-chloro-6-[2-methyl-4-(3-trifluoromethyl-pyridin-2-yl)-piperazin-1-yl]-[1,3,5]triazin-2-yl}-amine (R)]
C[C@@H]1CN(c2ncccc2Cl)CCN1c1nc(Nc2ccc(C(C)(C)C)cc2)nc(OCc2ccccc2C(F)(F)F)n1 [Compound 5, (4-tert-Butyl-phenyl)-[4-[4-(3-chloro-pyridin-2-yl)-2-methyl-piperazin-1-yl]-6-(2-trifluoromethyl-benzyloxy)-[1,3,5]triazin-2-yl]-amine (R)]
C[C@@H]1CN(c2ncccc2C(F)(F)F)CCN1c1nc(Nc2ccc(C(C)(C)C)cc2)nc(OCc2ccccc2C(F)(F)F)n1 [Compound 6, (4-tert-Butyl-phenyl)-[4-[2-methyl-4-(3-trifluoromethyl-pyridin-2-yl)-piperazin-1-yl]-6-(2-trifluoromethyl-benzyloxy)-[1,3,5]triazin-2-yl]-amine (R)]
C[C@@H]1CN(c2ncccc2F)CCN1c1nc(Nc2ccc(C(C)(C)C)cc2)nc(OCc2ccccc2C(F)(F)F)n1 [Compound 7, (4-tert-Butyl-phenyl)-[4-[4-(3-fluoro-pyridin-2-yl)-2-methyl-piperazin-1-yl]-6-(2-trifluoromethyl-benzyloxy)-[1,3,5]triazin-2-yl]-amine (R)]
C[C@@H]1CN(c2ncccc2Cl)CCN1c1nc(Nc2ccc(C(F)(F)F)cc2)nc(OCc2ccccc2C(F)(F)F)n1 [Compound 8, [4-[4-(3-Chloro-pyridin-2-yl)-2-methyl-piperazin-1-yl]-6-(2-trifluoromethyl-benzyloxy)-[1,3,5]triazin-2-yl]-(4-trifluoromethyl-phenyl)-amine (R)]
C[C@@H]1CN(c2ncccc2C(F)(F)F)CCN1c1nc(Nc2ccc(C(F)(F)F)cc2)nc(OCc2ccccc2C(F)(F)F)n1 [Compound 9]
C[C@@H]1CN(c2ncccc2F)CCN1c1nc(Nc2ccc(C(F)(F)F)cc2)nc(OCc2ccccc2C(F)(F)F)n1 [Compound 10, [4-[4-(3-Fluoro-pyridin-2-yl)-2-methyl-piperazin-1-yl]-6-(2-trifluoromethyl-benzyloxy)-[1,3,5]triazin-2-yl]-(4-trifluoromethyl-phenyl)-amine (R)]
CC(C)(C)c1ccc(Nc2nc(OCc3ccccc3C(F)(F)F)nc(N3CCN(c4ccccn4)CC3)n2)cc1 [Compound 11, (4-tert-Butyl-phenyl)-[4-(4-pyridin-2-yl-piperazin-1-yl)-6-(2-trifluoromethyl-benzyloxy)-[1,3,5]triazin-2-yl]-amine]
COc1ccccc1N1CCN(c2nc(Nc3ccc(C(C)(C)C)cc3)nc(OCc3ccccc3C(F)(F)F)n2)CC1 [Compound 12, (4-tert-Butyl-phenyl)-[4-[4-(2-methoxy-phenyl)-piperazin-1-yl]-6-(2-trifluoromethyl-benzyloxy)-[1,3,5]triazin-2-yl]-amine]
C[C@H]1CN(c2ncccc2C(F)(F)F)CCN1c1nc(Cl)nc(Nc2ccc(C(F)(F)F)cc2)n1 [Compound 13, {4-Chloro-6-[2-methyl-4-(3-trifluoromethyl-pyridin-2-yl)-piperazin-1-yl]-[1,3,5]triazin-2-yl}-(4-trifluoromethyl-phenyl)-amine (S)]
C[C@H]1CN(c2ncccc2C(F)(F)F)CCN1c1nc(Nc2ccc(C(F)(F)F)cc2)nc(-c2ccc(C(F)(F)F)cc2)n1 [Compound 14, [4-[2-Methyl-4-(3-trifluoromethyl-pyridin-2-yl)-piperazin-1-yl]-6-(4-trifluoromethyl-phenyl)-[1,3,5]triazin-2-yl]-(4-trifluoromethyl-phenyl)-amine (S)]
CC(C)CCNc1nc(Nc2ccc(C(F)(F)F)cc2)nc(N2CCN(c3ncccc3C(F)(F)F)C[C@@H]2C)n1 [Compound 15, N-(3-Methyl-butyl)-6-[2-methyl-4-(3-trifluoromethyl-pyridin-2-yl)-piperazin-1-yl]-N′-(4-trifluoromethyl-phenyl)-[1,3,5]triazine-2,4-diamine (S)]
C[C@H]1CN(c2ncccc2C(F)(F)F)CCN1c1nc(Nc2ccc(C(F)(F)F)cc2)nc(-c2ccccc2Cl)n1 [Compound 16, {4-(2-Chloro-phenyl)-6-[2-methyl-4-(3-trifluoromethyl-pyridin-2-yl)-piperazin-1-yl]-[1,3,5]triazin-2-yl}-(4-trifluoromethyl-phenyl)-amine (S)]
C[C@@H]1CN(c2ncccc2Cl)CCN1c1nc(Cl)cc(Nc2ccc(C(F)(F)F)cc2)n1 [Compound 17, {6-Chloro-2-[4-(3-chloro-pyridin-2-yl)-2-methyl-piperazin-1-yl]-pyrimidin-4-yl}-(4-trifluoromethyl-phenyl)-amine (R)]
C[C@@H]1CN(c2ncccc2Cl)CCN1c1nc(Nc2ccc(C(F)(F)F)cc2)nc(N(C)C)n1 [Compound 18, 6-[4-(3-Chloro-pyridin-2-yl)-2-methyl-piperazin-1-yl]-N,N-dimethyl-N′-(4-trifluoromethyl-phenyl)-[1,3,5]triazine-2,4-diamine (R)]
CCCCNc1nc(Nc2ccc(C(F)(F)F)cc2)nc(N2CCN(c3ncccc3Cl)C[C@H]2C)n1 [Compound 19, N-Butyl-6-[4-(3-chloro-pyridin-2-yl)-2-methyl-piperazin-1-yl]-N′-(4-trifluoromethyl-phenyl)-[1,3,5]triazine-2,4-diamine (R)]
CN(C)c1nc(Nc2ccc(C(F)(F)F)cc2)nc(N2CCN(c3ncccc3C(F)(F)F)CC2)n1 [Compound 20, N,N-Dimethyl-N′-(4-trifluoromethyl-phenyl)-6-[4-(3-trifluoromethyl-pyridin-2-yl)-piperazin-1-yl]-[1,3,5]triazine-2,4-diamine]
CC(C)CCNc1nc(Nc2ccc(C(F)(F)F)cc2)nc(N2CCN(c3ncccc3C(F)(F)F)CC2)n1 [Compound 21, N-(3-Methyl-butyl)-N′-(4-trifluoromethyl-phenyl)-6-[4-(3-trifluoromethyl-pyridin-2-yl)-piperazin-1-yl]-[1,3,5]triazine-2,4-diamine]
